# Results: patent US8268836B2, “Compound useful as a c-Met inhibitor” (Eli Lilly and Company, priority 2010, dated 2012)
# Key:
# [1] = Kinetic solubility screen (nephelometry); assay type: physicochemical
# Description: The assay is used to determine the concentration range in which a compound that has been pre-solubilized in DMSO at 10 mM will precipitate from a solution. The assay is conducted in a screening format on a 96-well plate and measures the nephelometry (light scattering) from precipitated compound in aqueous phosphate buffer (50 mM; pH 7.4). This method consists of a 2-hour RT (room temperature) incubation of compound in buffer at concentrations of 10, 20, 40, 60, 80, and 100 μM (where % DMSO is kept constant). Plates are pre-read by the nephelometer to determine if scratches or dust particles are present and this is used for background subtraction. The reported values are the concentrations at which the last soluble and first insoluble are achieved. These assays are not optimized to assess equilibrium solubility or determine a “true” kinetic solubility.
# 99 kinases = test: Cerep Express Diversity Kinase Profile screening; assay type: biochemical
# From the text: The Express Diversity Kinase Profile™ is a screening service developed by Cerep SA (Paris, France). Details of assay conditions and/or contact information can be found on their website http://www.cerep.fecerep/users/pages/catalog/profiles/catalog.asp).
# [2] = target: T1, human c-Met (phospho-c-Met in S114 tumors) (Homo sapiens, UniProt P08581); test: c-Met in vivo target inhibition (IVTI) assay, S114 tumors in nude mice; set-up: species or system mouse
# T1 construct: expressed in transfected cells; host or cells: S114 cells grown as subcutaneous tumors in athymic nude mice
# T1 sequence (P08581 25-1390): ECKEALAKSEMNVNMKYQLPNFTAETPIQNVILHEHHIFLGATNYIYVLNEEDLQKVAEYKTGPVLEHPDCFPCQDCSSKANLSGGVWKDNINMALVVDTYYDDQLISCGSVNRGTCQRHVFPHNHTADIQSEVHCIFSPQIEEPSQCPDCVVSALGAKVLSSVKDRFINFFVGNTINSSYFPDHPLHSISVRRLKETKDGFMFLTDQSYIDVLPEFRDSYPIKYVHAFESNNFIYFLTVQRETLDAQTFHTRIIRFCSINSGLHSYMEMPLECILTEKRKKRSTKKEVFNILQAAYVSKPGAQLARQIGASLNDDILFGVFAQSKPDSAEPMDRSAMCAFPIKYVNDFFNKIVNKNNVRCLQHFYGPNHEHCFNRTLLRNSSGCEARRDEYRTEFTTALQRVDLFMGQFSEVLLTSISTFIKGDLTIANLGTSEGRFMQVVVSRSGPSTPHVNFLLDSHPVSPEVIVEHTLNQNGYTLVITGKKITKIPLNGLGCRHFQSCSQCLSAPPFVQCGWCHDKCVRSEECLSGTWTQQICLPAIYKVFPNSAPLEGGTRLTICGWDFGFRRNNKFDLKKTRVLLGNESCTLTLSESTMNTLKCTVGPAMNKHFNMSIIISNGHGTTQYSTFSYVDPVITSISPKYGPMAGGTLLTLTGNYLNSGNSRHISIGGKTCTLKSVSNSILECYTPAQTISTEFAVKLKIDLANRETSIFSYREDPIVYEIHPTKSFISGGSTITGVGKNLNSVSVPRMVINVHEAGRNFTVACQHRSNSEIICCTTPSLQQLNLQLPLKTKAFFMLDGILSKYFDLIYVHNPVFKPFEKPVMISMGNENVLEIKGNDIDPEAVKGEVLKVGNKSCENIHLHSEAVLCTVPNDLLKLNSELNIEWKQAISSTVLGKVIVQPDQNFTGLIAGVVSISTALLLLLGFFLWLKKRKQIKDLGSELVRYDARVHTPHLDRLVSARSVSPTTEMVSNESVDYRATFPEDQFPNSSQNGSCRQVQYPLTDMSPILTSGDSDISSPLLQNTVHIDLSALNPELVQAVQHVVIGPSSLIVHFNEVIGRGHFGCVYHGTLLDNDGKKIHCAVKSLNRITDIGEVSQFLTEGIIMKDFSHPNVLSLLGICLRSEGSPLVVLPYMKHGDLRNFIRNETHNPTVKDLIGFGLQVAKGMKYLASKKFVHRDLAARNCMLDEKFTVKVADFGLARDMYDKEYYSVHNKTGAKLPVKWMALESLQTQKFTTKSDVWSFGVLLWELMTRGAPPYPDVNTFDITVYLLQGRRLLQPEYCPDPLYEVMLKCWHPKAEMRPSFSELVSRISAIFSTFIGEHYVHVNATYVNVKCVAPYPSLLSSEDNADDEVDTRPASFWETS
# Description: S114 cells (over-expressing both human HGF and human c-Met) are cultured in a growth media (Dulbecco's Modified Eagle Medium) supplemented with 10% fetal calf serum and expanded. Cells are harvested and washed twice with phosphate buffered saline and 2×10^6 cells are mixed with equal volume of BD Matrigel™ matrix (BD Bioscience, Franklin, N.J.), and injected subcutaneously into the flank of nude mice (athymic nude, from Harlan, Indianapolis, Ind.). At day 8 after implant, compounds (formulated in 10% acacia or 1% carboxymethylcellulose/0.5% sodium lauryl sulfate/0.05% antifoam as suspension) are administered to animals by oral gavage at 50 mg/kg. Animals are sacrificed at 2 h post dose, and tumors are harvested and stored frozen until needed.
# Frozen tumors are pulverized using motar-pestel. The pulverized tissues are transferred to a tube containing Lysing Matrix D beads (MP Biomedicals, Solon, Ohio) and 600 μL lysis buffer (RIPA buffer, containing 50 mM Tris-HCl, pH 7.4, 150 mM NaCl, 1% NP-40, 0.5% sodium deoxycholate, 0.1% SDS, from Boston Bioproducts, Phosphatase Inhibitors I and II and Protease Inhibitor (Sigma, St. Louis, Mo.)). A FastPrep® Cell Disrupter (MP Biomedicals, Inc.) is used to disrupt the tissue and lyse the cells. Lysates are passed through a 20 gauge needle and transferred to a clean tube. Protein concentration is determined by Bradford method known to one of skill in the art.
# Tumor lysates are loaded onto MSD® phosphor-Met ELISA plates and phosphor-c-Met level is determined using the same protocol as H460 cell-based ELISA. […] The TEC50 for example 1 is 0.18 μM with a 95% confidence interval bounded by 0.13 μM and 0.23 μM.
# In IVTI studies, each compound is administered orally and formulated in 10% w/v acacia. Mouse blood samples are collected with anti-coagulant (EDTA-purple top Vacutainer tube) post-dose using cardiac puncture techniques. Tubes are inverted for 3-5 times and are placed on ice until centrifugation at 3000 RPM (1800×g) for 10 min at 4° C. to obtain plasma. Aliquots of plasma are pipetted and stored in a clean 96 well plate. Plasma samples are stored immediately at −80° C. Shipments of plasma samples are packed in dry ice and samples are frozen at −80° C. until analysis.
# [3] = Rat bioavailability study; assay type: in vivo
# Description: In rat bioavailability studies, each compound is administered intravenously (IV) or orally (PO). Intravenous dosing is formulated in solution formulation and oral dosing is formulated in 10% w/v acacia. Rat blood samples are collected using anti-coagulant (EDTA) collection tubes and centrifugation is performed to obtain plasma samples. Aliquots of plasma are pipetted and stored immediately at <−20° C. Shipments of plasma samples are packed in dry ice if needed and samples are frozen at <−20° C. until analysis.
# A stock solution of each drug is prepared and is diluted into pooled rat plasma to prepare standards. Plasma standards or samples are treated by protein precipitation or liquid-liquid extraction using organic solvent containing internal standard. The mixtures are centrifuged and aliquots of the resulting supernatant fractions are transferred. In the case of protein precipitation, supernatant is diluted and analyzed using a Mass Spectrometer coupled to a HPLC System and an autosampler. In the case of liquid-liquid-extraction, supernatant is dried under N2 at 40° C., reconstituted and analyzed using a Mass Spectrometer coupled to a HPLC System and an autosampler. Quantitation is performed using multiple reaction monitoring (MRM) and linear regression plots of compounds to internal standard peak area ratios versus drug concentrations.
# [4] = plasma, PO 10 mg/kg in 10% acacia, Example 1 dosed as mesylate salt
compound,measurement,setting,value
"Cn1cc(-c2ccc3nnc(Sc4ccc5nn(C)cc5c4)n3n2)cn1 [Example 1, 6-(1-Methyl-1H-pyrazol-4-yl)-3-(2-methyl-2H-indazol-5-ylthio)-[1,2,4]triazolo[4,3-b]pyridazine]",1st insoluble pH 7.4,"[1]; 50 mM phosphate buffer pH 7.4, 2 h RT, from 10 mM DMSO",Non detect
same,solubility at 2 h,"[1]; aqueous phosphate buffer, aqueous buffer, kinetic from dmso stock, 50 mM phosphate buffer pH 7.4, 2 h RT, from 10 mM DMSO, read-out: Last soluble pH 7.4",> 100 µM
same,fold more soluble than the reference compound in pH 7.4 buffer,[1]; kinetic solubility screen pH 7.4,at least 3 fold
same,Kinases inhibited in Cerep screening of 99 kinases,99 kinases,inhibited only c-Met
same,inhibition at 16 mg/kg,"[2]; 16 mg/Kg dose, 2 h, experiment separate from head to head study, read-out: Single dose IVTI % inhibition after 2 h",98%
same,EC50,"[2]; S114 tumors in nude mice, read-out: TEC50",0.18 µM
same,inhibition at 8 mg/kg,"[2]; S114 tumors, oral 8 mg/kg, 8 h, read-out: % phos-Met inhibition at 8 mg/kg after 8 h",75%
same,inhibition at 20 mg/kg,"[2]; S114 tumors, oral 20 mg/kg, 8 h, read-out: % phos-Met inhibition at 20 mg/kg after 8 h",93%
same,ED50,"[2]; oral gavage, S114 tumors in nude mice",0.32 mg/kg
same,fold increase in oral bioavailability vs reference compound,[3],4.5 fold
same,fold longer terminal elimination half life vs reference compound,[3]; 1 mg/kg intravenous dose,4 fold
same,fold lower plasma clearance vs reference compound,[3]; 1 mg/kg intravenous dose,18 fold
same,fold higher exposure by peak plasma concentration vs reference compound,"[3]; 10 mg/kg oral dose, 10% acacia",57 fold
same,fold higher exposure by plasma AUC vs reference compound,"[3]; 10 mg/kg oral dose, 10% acacia",93 fold
same,clearance,"[3]; plasma, IV 1 mg/kg solution, Example 1 dosed as mesylate salt",1.7 mL/min/kg
same,half-life,"[3]; plasma, IV 1 mg/kg solution, Example 1 dosed as mesylate salt, read-out: T½ (converted)",2.3 h
same,Vd,"[3]; plasma, IV 1 mg/kg solution, Example 1 dosed as mesylate salt, read-out: Vdss",0.3 L/kg
same,AUC,[3]; [4],73800 ng·h/mL
same,Cmax,[3]; [4],9400 ng/mL
same,Tmax,[3]; [4],3.33 h
same,bioavailability,"[3]; plasma, PO 10 mg/kg vs IV 1 mg/kg, Example 1 dosed as mesylate salt, read-out: F % (oral bioavailability)",65.8%
